Assay results: PMC11637483, “Dissecting caspase-2-mediated cell death: from intrinsic PIDDosome activation to chemical modulation” (Protein & Cell, 2024)
Read-outs that look alike come from different tables or passages of the source.

Columns and labels:
[1] = tested on: HeLa-CASP2/CASP3/GSDMD TKO + CASP2 cells (human caspase-2); experiment: ATP-based cell viability (CellTiter-Glo) in HeLa TKO cells with exogenous caspase-2 expression; settings: for EC50: Homo sapiens, HeLa, ATP-based viability, HeLa TKO cells with exogenous caspase-2, titrated compound
Excerpt: Specific chemical compounds are powerful tools for dissecting target-related signaling mechanisms in biological contexts ([Beck et al., 2022]; [Zhang et al., 2012]). Prompted by this notion and possibly to identify a compound that could activate the PIDDosome, we designed a cell death-based high-throughput chemical screen in HeLa cells, in which a triple knockout of CASP2, CASP3, and GSDMD were constructed. CASP3 and GSDMD deficiency served as the background to minimize compound-induced nonspecific cytotoxicity and undesired pyroptosis. Using the triple knockout cells as the control, additional expression of exogenous caspase-2 allows the identification of compounds that can specifically activate the caspase-2-BID pathway and trigger apoptosis through caspase-7. […] In accordance with the apoptosis induction, HUHS015 induced evident processing of caspase-2 expressed in the triple-knockout cells (Fig. 3B). This indicated activation of caspase-2 as the protease-deficient C320A mutant of caspase-2 was not processed upon HUHS015 treatment (Fig. 3B). Accordingly, expression of caspase-2 C320A rendered no cell death in response to HUHS015 treatment (Fig. 3B).
Figure 3. Chemical screen identifies HUHS015 as an agonist of human caspase-2. (A) Screen raw data and selectivity analyses of the compound plate containing HUHS015. The ATP-based viability data of both HeLa-CASP2^−/−CASP3^−/−GSDMD^−/− (TKO) (control group) and TKO cells with exogenous caspase-2 expression (experimental group) are shown. The ratios of the cell viability between the two groups are calculated with 3 as a cutoff for positive compound hit selection. (B) HUHS015-induced cell death depends on caspase-2 activity. HeLa TKO cells expressing WT or enzymatically deficient C320A mutant of caspase-2 were treated with HUHS015. ATP-based cell viability and immunoblotting of caspase-2 cleavage are shown. (C and F) The structures and potencies of HUHS15 (C) and its optimized derivative HUHS15-036 (F). HeLa TKO cells with exogenous caspase-2 expression were treated with titrated compounds. The ATP-based viability data were plotted with compound concentration for EC50 calculation. (D) BID is required for HUHS15-induced caspase-2-dependent cell death. […] Processing of caspase-2, -3, and -7 was analyzed by immunoblotting. […] ATP-based cell viability in panels (B and D) is expressed as mean ± s.d. from three technical replicates. […]
Cell viability was measured by the ATP assay using the CellTiter-Glo® Luminescent Cell Viability Assay kit (Promega).
Drug-related Screening Library (25 × 384-well plate, more than 7,000 compounds) was used for the chemical screen in the TKO HeLa cells rescued with exogenous caspase-2 expression. […] After treatment for 12 h, the cell viability was measured by the ATP assay. […]

[2] = tested on: caspase-2-expressing HeLa cells with BID, RAIDD or PIDD1 knockout; experiment: Compound-induced caspase-2 activation and cell death in pathway-gene knockout HeLa cells; assay type: cell-based, human
Experimental: Figure 3. Chemical screen identifies HUHS015 as an agonist of human caspase-2. (A) Screen raw data and selectivity analyses of the compound plate containing HUHS015. The ATP-based viability data of both HeLa-CASP2^−/−CASP3^−/−GSDMD^−/− (TKO) (control group) and TKO cells with exogenous caspase-2 expression (experimental group) are shown. The ratios of the cell viability between the two groups are calculated with 3 as a cutoff for positive compound hit selection. (B) HUHS015-induced cell death depends on caspase-2 activity. HeLa TKO cells expressing WT or enzymatically deficient C320A mutant of caspase-2 were treated with HUHS015. ATP-based cell viability and immunoblotting of caspase-2 cleavage are shown. (C and F) The structures and potencies of HUHS15 (C) and its optimized derivative HUHS15-036 (F). HeLa TKO cells with exogenous caspase-2 expression were treated with titrated compounds. The ATP-based viability data were plotted with compound concentration for EC50 calculation. (D) BID is required for HUHS15-induced caspase-2-dependent cell death. WT and BID^−/− (KO) HeLa TKO cells with exogenous caspase-2 expression, as well as the knockout cells rescued with WT or D60E mutant of BID were treated with HUHS15. ATP-based cell viability and immunoblotting detecting caspase-2 and BID processing are shown. (E) HUHS15-induced caspase-3/7 activation relies on caspase-9 but is independent of PIDDosome. CASP2^−/− (KO) HeLa cells with exogenous caspase-2 expression in the indicated knockout background were treated with HUHS15. Processing of caspase-2, -3, and -7 was analyzed by immunoblotting. (G) Top gRNA hits from the genetic screen of HUHS015-36-induced apoptosis in HeLa TKO cells with exogenous caspase-2 expression. In all the data, indicated cells were treated with the compound for 5 h (for HUHS015-36) or 9 h (for HUHS015) before cell viability measurement and immunoblotting analyses. ATP-based cell viability in panels (B and D) is expressed as mean ± s.d. from three technical replicates. Data in panels (B–F) are representative of three independent experiments. […]

Row | Structure (SMILES) | EC50 ([1]; read-out: EC50, caspase-2-mediated cell death) [µM] | treated cells that underwent apoptosis ([1]; pool of CRISPR-Cas9 mutagenized caspase-2-expressing TKO HeLa cells, genetic screen) | caspase-2 activation and cell death ([2]; PIDD1 or RAIDD knockout, 5 h) | EC50 ([1]; read-out: EC50 (half-maximal effective concentration), caspase-2-mediated cell death) [µM] | cell death ([2]; BID knockout) | caspase-2 processing and caspase-3/7 activation ([2]; RAIDD knockout)
1 | Cc1cccc2nc(-n3nc4c(c3O)CCCC4)[nH]c12 [HUHS015-36] | 0.06 | Over 95% | neither PIDD1 nor RAIDD deficiency had any effects |  |  | 
2 | Cc1ccc2nc(-n3nc(C)c(Cc4ccccc4)c3O)[nH]c2c1 [HUHS015] |  |  |  | ~6.8 | diminished | could still induce caspase-2 processing as well as caspase-3/7 activation
